Experimental data from patent US20260022142A1, “MACROCYCLIC IMMUNOMODULATORS” (Bristol-Myers Squibb Company, priority 2022, published 2026).
Bridge positions count the residues as written; N and C are the ends. Square brackets hold non-standard residues; d marks the D form. Peptide text beside a SMILES is read from it. * marks the point of attachment. ξ: configuration not given here. Bip = N[C@@H](Cc1ccc(-c2ccccc2)cc1)C(=O)O; Phe(3-Me) = Cc1cccc(C[C@H](N)C(=O)O)c1; Cha = N[C@@H](CC1CCCCC1)C(=O)O; NMeN = CN[C@@H](CC(N)=O)C(=O)O; dCha = N[C@H](CC1CCCCC1)C(=O)O; Thr(3ξ) = CC(O)[C@H](N)C(=O)O; Carboxymethyl = O=C(O)C*; Orn = NCCC[C@H](N)C(=O)O; Aun = NCCCCCCCCCCC(=O)O; Dab = NCC[C@H](N)C(=O)O; Dap = NC[C@H](N)C(=O)O; AEEA = NCCOCCOCC(=O)O

These molecules were tested against T1, PD-1/PD-L1 interaction (PE-labeled human PD-L1-Ig binding to Jurkat cell line over-expressing human PD-1) (Homo sapiens, UniProt Q15116) (assay: Jurkat-PD-1 Cell Binding High-Content Screening Assay (CBA)). Conditions: Jurkat cell line over-expressing human PD-1; PE-labeled PD-L1-Ig 20 nM final; read-out: Jurkat hPD1-PDL1 IC50.
T1 construct: expressed in transfected cells; host or cells: Jurkat
Type: cell-based
Method in brief: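 Jurkat cells over-expressing human PD-1 (8×10^3 per well, DMEM/10% FCS) preincubated with compound 2 h at 37° C, then PE-labeled human PD-L1-Ig (20 nM final) added for 1 h. Cells fixed with paraformaldehyde, Hoechst-stained, and bound fluorescence quantified by high-content imaging.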

T1 sequence (Q15116 25-288): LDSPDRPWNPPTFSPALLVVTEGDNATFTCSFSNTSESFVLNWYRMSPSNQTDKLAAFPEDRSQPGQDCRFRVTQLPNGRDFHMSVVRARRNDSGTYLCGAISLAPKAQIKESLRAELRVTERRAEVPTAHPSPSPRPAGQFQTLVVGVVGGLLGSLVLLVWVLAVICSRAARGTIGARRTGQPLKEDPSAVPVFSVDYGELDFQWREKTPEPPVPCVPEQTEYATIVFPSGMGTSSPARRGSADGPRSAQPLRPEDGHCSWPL

| IC50 [nM] | SMILES |
| --- | --- |
| 21.5 | CC(C)C[C@H]1NC(=O)[C@H](CCCN)NC(=O)[C@H](C(C)C)NC(=O)[C@H](Cc2ccc(-c3ccccc3)cc2)NC(=O)[C@H](C(C)C)NC(=O)[C@H](Cc2c[nH]c3ccccc23)NC(=O)[C@H](CC(=O)O)NC(=O)[C@H](Cc2ccc(OCC(=O)O)cc2)NC(=O)[C@H](CN)NC(=O)CSC[C@@H](C(=O)N[C@@H](CCN)C(=O)NCCCCCCCCCCC(=O)O)NC(=O)[C@H](CCCCN)NC(=O)[C@H](C(C)O)NC(=O)[C@H](CC2CCCCC2)NC(=O)[C@H](CCN)NC1=O (stereo partly drawn) [Compound 3648] ({CH2CO}-[Dap]Y(Carboxymethyl)DWV[Bip]V[Orn][dL][Dab][Cha][Thr(3ξ)]KC[Dab][Aun]-OH; thioether N-14) |
| 22.5 | CC(C)[C@@H]1NC(=O)[C@H](CC2CCCCC2)NC(=O)[C@H](CCN)NC(=O)[C@@H](CC2CCCCC2)NC(=O)[C@H](CCCN)NC(=O)[C@H](C(C)C)NC(=O)[C@H](Cc2ccc(-c3ccccc3)cc2)NC(=O)[C@H](C(C)C)NC(=O)[C@H](Cc2c[nH]c3ccccc23)NC(=O)[C@H](CC(=O)O)NC(=O)[C@H](Cc2ccc(OCC(=O)O)cc2)NC(=O)[C@H](CN)NC(=O)CSC[C@@H](C(=O)NCCOCCOCC(=O)N[C@@H](CCN)C(=O)NCCCCCCCCCCC(=O)O)NC(=O)[C@H](CCCCN)NC1=O [Compound 2673] ({CH2CO}-[Dap]Y(Carboxymethyl)DWV[Bip]V[Orn][dCha][Dab][Cha]VKC[AEEA][Dab][Aun]-OH; thioether N-14) |
| 64.2 | CC(C)C[C@H]1NC(=O)[C@H](CCCN)NC(=O)[C@H](Cc2ccc(O)cc2)NC(=O)[C@H](Cc2ccc(-c3ccccc3)cc2)NC(=O)[C@H](Cc2ccc(O)cc2)NC(=O)[C@H](Cc2c[nH]c3ccccc23)NC(=O)[C@H](CC(=O)O)NC(=O)[C@H](Cc2ccc(OCC(=O)O)cc2)NC(=O)[C@H](C(C)O)NC(=O)CSC[C@@H](C(=O)N[C@@H](CCN)C(=O)NCCCCCCCCCCC(=O)O)NC(=O)[C@H](CCCCN)NC(=O)[C@H](C(C)O)NC(=O)[C@H](CC2CCCCC2)NC(=O)[C@H](CCN)NC1=O (stereo partly drawn) [Compound 3670] ({CH2CO}-[Thr(3ξ)]Y(Carboxymethyl)DWY[Bip]Y[Orn][dL][Dab][Cha][Thr(3ξ)]KC[Dab][Aun]-OH; thioether N-14) |
| 31.3 | Cc1cccc(C[C@@H]2NC(=O)[C@H](CC(=O)O)NC(=O)[C@H](Cc3ccc(OCC(=O)O)cc3)NC(=O)[C@H](Cc3ccc(OCC(=O)O)cc3)NC(=O)CSC[C@@H](C(=O)NCC(=O)N[C@@H](CCN)C(=O)NCCCCCCCCCCC(=O)O)NC(=O)[C@H](CO)NC(=O)[C@H](C(C)C)NC(=O)[C@H](CC3CCCCC3)NC(=O)[C@H](CCN)NC(=O)[C@@H](CC(C)C)NC(=O)[C@H](CCCN)NC(=O)[C@H](C(C)C)NC(=O)[C@H](Cc3ccc(-c4ccccc4)cc3)NC(=O)[C@H](CC(C)C)NC2=O)c1 [Compound 1054] ({CH2CO}-Y(Carboxymethyl)Y(Carboxymethyl)D[Phe(3-Me)]L[Bip]V[Orn][dL][Dab][Cha]VSCG[Dab][Aun]-OH; thioether N-14) |
| 36.8 | Cc1cccc(C[C@@H]2NC(=O)[C@H](CC(=O)O)NC(=O)[C@H](Cc3ccc(OCC(=O)O)cc3)NC(=O)[C@H](C(C)O)NC(=O)CSC[C@@H](C(=O)N(C)[C@@H](CC(N)=O)C(=O)NCCOCCOCC(=O)NCCCCCCCCCCC(=O)O)NC(=O)[C@H](CCCN)NC(=O)[C@H](C(C)C)NC(=O)[C@H](CC3CCCCC3)NC(=O)[C@H](CCN)NC(=O)[C@@H](CC(C)C)NC(=O)[C@H](CCN)NC(=O)[C@H](C(C)C)NC(=O)[C@H](Cc3ccc(-c4ccccc4)cc3)NC(=O)[C@H](C(C)C)NC2=O)c1 (stereo partly drawn) [Compound 3322] ({CH2CO}-[Thr(3ξ)]Y(Carboxymethyl)D[Phe(3-Me)]V[Bip]V[Dab][dL][Dab][Cha]V[Orn]C[NMeN][AEEA][Aun]-OH; thioether N-14) |
